# Laboratory results: patent publication US20250270246A1, “LINCOSAMIDES AND USES THEREOF” (President and Fellows of Harvard College, priority 2022, published 2025)
# Counter-ions that a name gives are not always drawn. Like-named read-outs stand apart in the source and are kept apart here.
# What was measured:
# [1] = rcm bond, Grubbs II (20 mol%)/benzoquinone, toluene
# [2] = system: S. aureus ATCC 29213 (HAV#001); test: MIC by broth microdilution (CLSI); type: cell-based; details: for MIC: Staphylococcus aureus, ATCC29213, 24 h, read-out: MIC S. aureus ATCC 29213
# Description: (§1) Minimum inhibitory concentrations (MICs) were determined by the broth microdilution method following the Clinical and Laboratory Standards Institute (CLSI) guidelines. Test organisms consisted of standard reference strains from the American Type Culture Collection (ATCC; Manassa, VA, USA) and clinical isolates obtained from JMI Laboratories Inc. (North Liberty, IA, USA), Micromyx repository (MMX; Kalamazoo, MI, USA), and Massachusetts Eye and Ear Hospital (Boston, USA). Before the start of the MIC experiment, standard and test compound stock solutions were prepared in dimethyl sulfoxide (DMSO, Aldrich D2650) at a stock concentration of 2,560 μg/mL. The compound concentration range typically employed for each experiment was 64-0.06 μg/mL (2.5% final DMSO concentration). Iboxamycin was used as a comparator in all experiments. All bacterial strains were sub-cultured on blood agar plates (tryptic soy agar with 5% sheep blood, Hardy Diagnostics) and incubated overnight at 35° C. Organisms were suspended in cation-adjusted Mueller-Hinton broth (CaMHB, BD 212322) and optical density was adjusted to 0.5 McFarland standard. Suspensions were further diluted to obtain a final inoculum of 5×10^5 CFU/mL for broth microdilution experiments. The minimum concentration of compound required to inhibit visible bacterial growth after 24 h of incubation was recorded as the MIC in μg/mL. MICs for P. aeruginosa were recorded in cation-adjusted Mueller-Hinton broth which had been pre-treated with Chelex 100 ion exchange resin according to procedures reported in Ito et al. Antimicrob Agents Chemother (2016) 60 (12), 7396-7401.
# [3] = system: A. baumannii ATCC 19606 (HAV#010); test: MIC by broth microdilution (CLSI); type: cell-based; details: for MIC: Acinetobacter baumannii, ATCC19606, 24 h, read-out: MIC A. baumannii ATCC 19606
# Description: as §1
# [4] = system: E. faecium JMI-990536; test: MIC by broth microdilution (CLSI); type: cell-based; details: for MIC: Enterococcus faecium, JMI990536, 24 h, read-out: MIC E. faecium JMI-990536
# Description: as §1
# [5] = system: S. aureus MMX 3035; test: MIC by broth microdilution (CLSI); type: cell-based; details: for MIC: Staphylococcus aureus, MMX3035, 24 h, read-out: MIC S. aureus MMX 3035
# Description: as §1
# [6] = system: E. coli lptD mutant; test: MIC by broth microdilution (CLSI); type: cell-based; details: CaMHB, 24 h incubation; for MIC: Escherichia coli, 24 h, read-out: MIC E. coli lptD mutant, lptD mutant / ΔlptD mutant
# Description: as §1
# [7] = system: E. faecalis ATCC 29212 (HAV#005); test: MIC by broth microdilution (CLSI); type: cell-based; details: for MIC: Enterococcus faecalis, ATCC29212, 24 h, read-out: MIC E. faecalis ATCC 29212
# Description: as §1
# [8] = system: E. coli ΔtolC; test: MIC by broth microdilution (CLSI); type: cell-based; details: CaMHB, 24 h incubation; for MIC: Escherichia coli, 24 h, read-out: MIC E. coli ΔtolC, ΔtolC
# Description: as §1
# [9] = system: K. pneumoniae JMI-991193; test: MIC by broth microdilution (CLSI); type: cell-based; details: for MIC: Klebsiella pneumoniae, JMI991193, 24 h, read-out: MIC K. pneumoniae JMI-991193
# Description: as §1
# [10] = system: E. coli ATCC 25922 (HAV#006); test: MIC by broth microdilution (CLSI); type: cell-based; details: for MIC: Escherichia coli, ATCC25922, 24 h, read-out: MIC E. coli ATCC 25922
# Description: as §1
# [11] = system: S. aureus Clinical (cfr); test: MIC by broth microdilution (CLSI); type: cell-based; details: for MIC: Staphylococcus aureus, 24 h, read-out: MIC S. aureus Clinical (cfr)
# Description: as §1
# [12] = from C=CCCCCS[C@H]1O[C@H]([C@H](N[S@](=O)C(C)(C)C)[C@H](C)C=C)[C@H](OC(C)=O)[C@H](OC(C)=O)[C@H]1OC(C)=O, 12-membered ring, 2.0 mM, 0.25 h
# [13] = HAV#001, ATCC 29213, CaMHB, 24 h incubation
# [14] = HAV#010, ATCC 19606, CaMHB, 24 h incubation
# [15] = MMX 3035, CaMHB, 24 h incubation
# [16] = HAV#005, ATCC 29212, CaMHB, 24 h incubation
# [17] = JMI-991193, CaMHB, 24 h incubation
# [18] = HAV#006, ATCC 25922, CaMHB, 24 h incubation
# [19] = Clinical (cfr), CaMHB, 24 h incubation
compound,measurement,setting,value
CC(=O)O[C@@H]1[C@H](OC(C)=O)[C@@H](OC(C)=O)[C@@H]2O[C@@H]1[C@H](N[S@](=O)C(C)(C)C)C(C)/C=C/CCCCS2 (stereo partly shown),"ring closure, isolated yield",[1]; [12],64.8%
CC(=O)O[C@@H]1[C@H](OC(C)=O)[C@@H](OC(C)=O)[C@@H]2O[C@@H]1[C@H](N[S@](=O)C(C)(C)C)C(C)/C=C\CCCCS2 (stereo partly shown),"ring closure, isolated yield",[1]; [12],6.3%
CC(C)(C)[S@@](=O)N[C@@H]1C/C=C\CC(CO[Si](C)(C)C(C)(C)C)S[C@H]2O[C@H]1[C@H](OC(=O)c1ccccc1)[C@H](OC(=O)c1ccccc1)[C@H]2OC(=O)c1ccccc1 (stereo partly shown),"ring closure, isolated yield","[1]; from C=CCC(CO[Si](C)(C)C(C)(C)C)S[C@H]1O[C@H]([C@@H](CC=C)N[S@](=O)C(C)(C)C)[C@H](OC(=O)c2ccccc2)[C@H](OC(=O)c2ccccc2)[C@H]1OC(=O)c1ccccc1, 10-membered ring, 1.0 mM, 0.25 h",85%
C[C@@H]1/C=C\C[C@@H](CO[Si](C)(C)C(C)(C)C)S[C@H]2O[C@H]([C@@H]1N[S@](=O)C(C)(C)C)[C@H](OC(=O)c1ccccc1)[C@H](OC(=O)c1ccccc1)[C@H]2OC(=O)c1ccccc1,"ring closure, isolated yield","[1]; from C=CCC(CO[Si](C)(C)C(C)(C)C)S[C@H]1O[C@H]([C@H](N[S@](=O)C(C)(C)C)C(C)C=C)[C@H](OC(=O)c2ccccc2)[C@H](OC(=O)c2ccccc2)[C@H]1OC(=O)c1ccccc1, 10-membered ring, 2.0 mM, 0.25 h",85%
O=C(N[C@@H]1C/C=C\CCS[C@H]2O[C@H]1[C@H](O)[C@H](O)[C@H]2O)C(F)(F)F,"ring closure, isolated yield","[1]; from C=CCCS[C@H]1O[C@H]([C@@H](CC=C)NC(=O)C(F)(F)F)[C@H](O)[C@H](O)[C@H]1O, 10-membered ring, 0.4 mM, 0.33 h",39%
"CC(C)C[C@@H]1CCO[C@@H]2[C@H](CN[C@@H]2C(=O)N[C@@H]2C/C=C\C[C@@H](c3cn(-c4ccc(F)cc4)nn3)S[C@H]3O[C@H]2[C@H](O)[C@H](O)[C@H]3O)C1 [FSA1608021, (4S,5aS,8S,8aR)—N-((1R,3S,8R,9R,10R,11S,12R,Z)-3-(1-(4-fluorophenyl)-1H-1,2,3-triazol-4-yl)-10,11,12-trihydroxy-13-oxa-2-thiabicyclo[7.3.1]tridec-5-en-8-yl)-4-isobutyloctahydro-2H-oxepino[2,3-c]pyrrole-8-carboxamide formate salt]",MIC,[2],0.5 µg/mL
same,MIC,[3],4 µg/mL
same,MIC,[4],0.5 µg/mL
same,MIC,[5],2 µg/mL
same,MIC,[6],0.25 µg/mL
same,MIC,[7],0.5 µg/mL
same,MIC,[8],1 µg/mL
same,MIC,[9],4 µg/mL
same,MIC,[10],1 µg/mL
same,MIC,[11],4 µg/mL
"CC(C)C[C@@H]1CCO[C@@H]2[C@H](CN[C@@H]2C(=O)N[C@H]2[C@H]3O[C@H](S[C@H](c4cn(-c5cc(F)c(F)cc5F)nn4)C/C=C\[C@H]2C)[C@H](O)[C@@H](O)[C@H]3O)C1 [FSA1609051, (4S,5aS,8S,8aR)-4-isobutyl-N-((1R,3S,7R,8R,9R,10R,11S,12R,Z)-10,11,12-trihydroxy-7-methyl-3-(1-(2,4,5-trifluorophenyl)-1H-1,2,3-triazol-4-yl)-13-oxa-2-thiabicyclo[7.3.1]tridec-5-en-8-yl) octahydro-2H-oxepino[2,3-c]pyrrole-8-carboxamide formate salt]",MIC,[2]; [13],0.25 µg/mL
same,MIC,[3]; [14],2 µg/mL
same,MIC,"[4]; JMI-990536, CaMHB, 24 h incubation",0.5 µg/mL
same,MIC,[5]; [15],0.5 µg/mL
same,MIC,[6],0.5 µg/mL
same,MIC,[7]; [16],0.25 µg/mL
same,MIC,[8],0.25 µg/mL
same,MIC,[9]; [17],8 µg/mL
same,MIC,[10]; [18],4 µg/mL
same,MIC,[11]; [19],0.5 µg/mL
"CC(C)C[C@@H]1CCO[C@@H]2[C@H](CN[C@@H]2C(=O)N[C@H]2[C@H]3O[C@H](S[C@H](c4cn(-c5ccc(F)cc5F)nn4)C/C=C\[C@H]2C)[C@H](O)[C@@H](O)[C@H]3O)C1 [FSA1609052, (4S,5aS,8S,8aR)—N-((1R,3S,7R,8R,9R,10R,11S,12R,Z)-3-(1-(2,4-difluorophenyl)-1H-1,2,3-triazol-4-yl)-10,11,12-trihydroxy-7-methyl-13-oxa-2-thiabicyclo[7.3.1]tridec-5-en-8-yl)-4-isobutyloctahydro-2H-oxepino[2,3-c]pyrrole-8-carboxamide formate salt]",MIC,[2],0.25 µg/mL
same,MIC,[3],1 µg/mL
same,MIC,[4],0.5 µg/mL
same,MIC,[5],0.5 µg/mL
same,MIC,[6],0.125 µg/mL
same,MIC,[7],0.25 µg/mL
same,MIC,[8],0.125 µg/mL
same,MIC,[9],4 µg/mL
same,MIC,[10],2 µg/mL
same,MIC,[11],0.5 µg/mL
"CC(C)C[C@@H]1CCO[C@@H]2[C@H](CN[C@@H]2C(=O)N[C@H]2[C@H]3O[C@H](SCCC/C=C/[C@H]2C)[C@H](O)[C@@H](O)[C@H]3O)C1 [FSA1609095, (4S,5aS,8S,8aR)-4-isobutyl-N-((1R,8R,9R,10R,11R,12S,13R,E)-11,12,13-trihydroxy-8-methyl-14-oxa-2-thiabicyclo[8.3.1]tetradec-6-en-9-yl) octahydro-2H-oxepino[2,3-c]pyrrole-8-carboxamide formate salt]",MIC S. aureus ATCC 29213,"[2]; HAV#001, ATCC 29213, CaMHB, 24 h incubation, formate salt",≤0.06 µg/mL
same,MIC A. baumannii ATCC 19606,"[3]; HAV#010, ATCC 19606, CaMHB, 24 h incubation, formate salt",4 µg/mL
same,MIC E. faecium JMI-990536,"[4]; JMI-990536, CaMHB, 24 h incubation, formate salt",2 µg/mL
same,MIC S. aureus MMX 3035,"[5]; MMX 3035, CaMHB, 24 h incubation, formate salt",2 µg/mL
same,MIC E. coli lptD mutant,"[6]; lptD mutant / ΔlptD mutant, formate salt",0.5 µg/mL
same,MIC E. faecalis ATCC 29212,"[7]; HAV#005, ATCC 29212, CaMHB, 24 h incubation, formate salt",0.125 µg/mL
same,MIC E. coli ΔtolC,"[8]; ΔtolC, formate salt",4 µg/mL
same,MIC K. pneumoniae JMI-991193,"[9]; JMI-991193, CaMHB, 24 h incubation, formate salt",16 µg/mL
same,MIC E. coli ATCC 25922,"[10]; HAV#006, ATCC 25922, CaMHB, 24 h incubation, formate salt",8 µg/mL
same,MIC S. aureus Clinical (cfr),"[11]; Clinical (cfr), CaMHB, 24 h incubation, formate salt",8 µg/mL
"CC(C)C[C@@H]1CCO[C@@H]2[C@H](CN[C@@H]2C(=O)N[C@H]2[C@H]3O[C@H](SCCC/C=C\[C@H]2C)[C@H](O)[C@@H](O)[C@H]3O)C1 [FSA1609096, (4S,5aS,8S,8aR)-4-isobutyl-N-((1R,8R,9R,10R,11R,12S,13R,Z)-11,12,13-trihydroxy-8-methyl-14-oxa-2-thiabicyclo[8.3.1]tetradec-6-en-9-yl) octahydro-2H-oxepino[2,3-c]pyrrole-8-carboxamide formate salt]",MIC,[2]; [13],≤ 0.06 µg/mL
same,MIC,[3]; [14],1 µg/mL
same,MIC,[4],0.125 µg/mL
same,MIC,[5]; [15],0.25 µg/mL
same,MIC,[6],0.125 µg/mL
same,MIC,[7]; [16],≤ 0.06 µg/mL
same,MIC,[8],0.25 µg/mL
same,MIC,[9]; [17],8 µg/mL
same,MIC,[10]; [18],2 µg/mL
same,MIC,[11]; [19],0.25 µg/mL
